According to ChEMBL document CHEMBL5375988, “AcGlcAs: A Novel P53-Targeting Arsenical with Potent Cellular Uptake and Cancer Cell Selectivity” (J Med Chem, 2023):
pIC50: −log10 of the molar value. The source made the active and inactive calls. No cut-off for these calls is given here.

How the values were obtained:
HL-60 [1] = test: Upregulation of CDKN1A mRNA expression in human HL-60 cells overexpressing p53-V272M mutant at 2 uM pretreated for 1 hr followed by culturing in fresh medium for 8 hrs by RT-qPCR analysis; type: functional, cell-based
NB-4 [2] = test: Induction of apoptosis in human NB4 cells assessed as necrotic cells at 3 uM preincubated for 1 hrs followed by replacement with fresh culture medium and measured after 24 hrs by Annexin V-FITC/7AAD staining based flow cytometry assay (reference value: 0.16%); type: functional
[3] = target: T1, PML-RARalpha (Homo sapiens) (UniProt P10276+P29590); test: Induction of PML/RARalpha degradation in human NB4 cells assessed as decrease in micropunctuates at 3 uM incubated for 1 hrs followed by replacement with fresh culture medium and measured after 0.5 to 24 hrs by immunofluorescence analysis; type: cell-based
T1 sequence (P10276 whole entry, looked up): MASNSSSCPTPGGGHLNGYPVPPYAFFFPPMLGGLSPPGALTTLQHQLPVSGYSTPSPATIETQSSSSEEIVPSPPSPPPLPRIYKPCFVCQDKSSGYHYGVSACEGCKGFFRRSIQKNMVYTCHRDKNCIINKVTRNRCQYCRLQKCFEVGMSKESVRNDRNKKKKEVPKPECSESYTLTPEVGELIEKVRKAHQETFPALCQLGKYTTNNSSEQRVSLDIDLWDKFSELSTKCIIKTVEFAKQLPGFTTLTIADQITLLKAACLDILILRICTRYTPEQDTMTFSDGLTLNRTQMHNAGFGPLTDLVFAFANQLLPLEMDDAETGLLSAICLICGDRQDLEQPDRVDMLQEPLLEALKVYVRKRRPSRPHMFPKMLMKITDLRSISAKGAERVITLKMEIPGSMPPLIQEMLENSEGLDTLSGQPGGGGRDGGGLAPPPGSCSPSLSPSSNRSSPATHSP
T1 sequence (P29590 whole entry, looked up): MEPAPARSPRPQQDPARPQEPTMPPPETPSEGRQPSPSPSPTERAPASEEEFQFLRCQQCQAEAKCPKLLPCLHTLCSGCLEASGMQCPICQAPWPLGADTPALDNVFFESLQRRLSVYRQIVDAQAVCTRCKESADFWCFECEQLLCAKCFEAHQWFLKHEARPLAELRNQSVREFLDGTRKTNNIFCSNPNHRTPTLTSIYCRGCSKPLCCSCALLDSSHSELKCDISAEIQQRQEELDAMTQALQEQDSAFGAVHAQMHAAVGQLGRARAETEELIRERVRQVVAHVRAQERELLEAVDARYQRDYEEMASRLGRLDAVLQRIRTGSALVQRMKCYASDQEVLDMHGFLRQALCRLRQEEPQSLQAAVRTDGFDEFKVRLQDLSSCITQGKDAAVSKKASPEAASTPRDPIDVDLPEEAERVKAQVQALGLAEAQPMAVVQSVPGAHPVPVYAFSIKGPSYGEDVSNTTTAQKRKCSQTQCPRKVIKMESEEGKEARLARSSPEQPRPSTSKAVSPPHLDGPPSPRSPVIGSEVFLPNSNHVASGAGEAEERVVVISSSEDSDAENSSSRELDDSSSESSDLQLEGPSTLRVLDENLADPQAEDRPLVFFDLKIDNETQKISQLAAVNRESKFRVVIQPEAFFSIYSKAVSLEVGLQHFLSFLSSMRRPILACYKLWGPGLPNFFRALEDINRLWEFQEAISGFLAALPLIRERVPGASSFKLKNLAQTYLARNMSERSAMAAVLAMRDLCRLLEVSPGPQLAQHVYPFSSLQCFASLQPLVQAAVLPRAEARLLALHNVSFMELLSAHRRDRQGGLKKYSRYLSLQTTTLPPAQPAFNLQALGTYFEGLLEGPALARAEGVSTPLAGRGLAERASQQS

[4] = target: T1, PML-RARalpha (Homo sapiens); test: Induction of PML/RARalpha degradation in human NB4 cells assessed as residual protein level at 3 uM incubated for 1 hrs followed by replacement with fresh culture medium and measured after 16 hrs by Western blot analysis (reference value: 1); type: cell-based
NB-4 [5] = test: Induction of apoptosis in human NB4 cells assessed as late apoptotic cells at 27 uM preincubated for 1 hrs followed by replacement with fresh culture medium and measured after 24 hrs by Annexin V-FITC/7AAD staining based flow cytometry assay (reference value: 3.71%); type: functional
[6] = Drug uptake in human MDA-MB-231 cells at 10 uM measured after 10 mins by ICP-MS analysis; type: ADME, cell-based; settings: mda-mb-231, 10 min
U-937 [7] = test: Induction of senescence in human U-937 cells harboring p53-V272M mutant assessed as increase in SA-beta-gal positive cells at 0.5 to 8 uM pretreated for 1 hr followed by culturing in fresh medium for 8 hrs by […] microscopic analysis; type: functional, cell-based; settings: dose 0.5-8 µM
U-937 [8] = test: Inhibition of colony formation in human U-937 cells harboring p53-V272M mutant at 0.5 to 8 uM pretreated for 1 hr followed by culturing in fresh medium and measured on day 14 by crystal violet staining based assay; type: functional, cell-based; settings: dose 0.5-8 µM
U-937 [9] = test: Induction of senescence in human U-937 cells overexpressing p53-V272M mutant assessed as upregulation of PML gene expression by RT-qPCR analysis; type: functional, cell-based
U-937 [10] = test: Induction of cell cycle arrest in human U-937 cells overexpressing p53-V272M mutant assessed as upregulation of GADD45A gene expression by RT-qPCR analysis; type: functional, cell-based
[11] = system: Cellular tumor antigen p53 (Homo sapiens), P04637 [V272M]; test: Thermostabilization of recombinant p53 V272M mutant (unknown origin) […] assessed as increase in melting temperature at 1:15 ratio in HEPES at pH 7.5 by DSF analysis
HL-60 [12] = test: Upregulation of p21 protein expression in human HL-60 cells overexpressing p53-V272M mutant pretreated for 1 hr followed by culturing in fresh medium for 16 hrs by Western blot analysis; type: functional, cell-based
[13] = Drug accumulation in ICR mouse lungs at 10 mg/kg, iv measured upto 24 hrs by ICP-MS analysis; type: ADME, organism-based, Lung; settings: in vivo
NB-4 [14] = test: Induction of apoptosis in human NB4 cells assessed as early apoptotic cells at 27 uM preincubated for 1 hrs followed by replacement with fresh culture medium and measured after 24 hrs by Annexin V-FITC/7AAD staining based flow cytometry assay (reference value: 2.15%); type: functional
[15] = target: T1, PML-RARalpha (Homo sapiens); test: Induction of PML/RARalpha degradation in human NB4 cells assessed as downregulation of FCGR1B mRNA expression incubated for 1 hrs followed by replacement with fresh culture medium for 6 hrs by RT-qPCR analysis; type: cell-based; settings: dose 0.3-3 µM
HepG2 = test: Impairment of thiol-mediated drug uptake in human HepG2 cells assessed as reduction in arsenic level at 10 uM pretreated with N-ethylmaleimide for 30 mins followed by compound addition and measured after 10 mins by ICP-MS analysis relative to control; type: ADME, cell-based; parameters: scale not given: the % may be the effect or the level left; settings: hepg2, 10 min
U-937 [16] = test: Upregulation of MDM2 mRNA expression in human U-937 cells overexpressing p53-V272M mutant pretreated for 1 hr followed by culturing in fresh medium for 4 hrs by RT-qPCR analysis; type: functional, cell-based
[17] = target: T1, PML-RARalpha (Homo sapiens); test: Induction of PML/RARalpha degradation in human NB4 cells assessed as residual protein level at 9 uM incubated for 1 hrs followed by replacement with fresh culture medium and measured after 16 hrs by Western blot analysis (reference value: 1); type: cell-based
[18] = Plasma stability in monkey assessed as half life at […] measured upto 120 mins by LC-MS analysis; type: ADME, cell-free, Macaca mulatta; settings: rhesus monkey
U-937 [19] = test: Upregulation of PUMA protein expression in human U-937 cells overexpressing p53-V272M mutant at 0.1 to 0.5 uM pretreated for 1 hr followed by culturing in fresh medium for 16 hrs by Western blot analysis; type: functional, cell-based; settings: dose 0.1-0.5 µM
HL-60 [20] = test: Upregulation of MDM2 mRNA expression in human HL-60 cells overexpressing p53-V272M mutant at 2 uM pretreated for 1 hr followed by culturing in fresh medium for 8 hrs by RT-qPCR analysis; type: functional, cell-based
U-937 [21] = test: Induction of extrinsic apoptosis in human U-937 cells overexpressing p53-V272M mutant assessed as upregulation of FAS gene expression by RT-qPCR analysis; type: functional, cell-based
NB-4 [22] = test: Induction of apoptosis in human NB4 cells assessed as early apoptotic cells at 9 uM preincubated for 1 hrs followed by replacement with fresh culture medium and measured after 24 hrs by Annexin V-FITC/7AAD staining based flow cytometry assay (reference value: 2.15%); type: functional
U-937 [23] = test: Cytotoxicity against p53 null human U-937 cells harboring p53 V272M mutant incubated for 48 hrs by CCK-8 assay; type: functional, cell-based; settings: U-937, 48 h
[24] = Drug accumulation in ICR mouse kidney at 10 mg/kg, iv measured upto 24 hrs by ICP-MS analysis; type: ADME, organism-based; settings: in vivo
[25] = system: Cellular tumor antigen p53 (Homo sapiens), P04637 [V272M]; test: Restoration of p53-V272M mutant transcriptional activity on PUMA promoter in human NCI-H1299 cells at 10 uM pretreated with 20 to 40 uM N-ethylmaleimide for 30 mins followed by compound addition for 10 mins and further incubation in fresh medium for 24 hrs by firefly/renilla based luciferase reporter assay; type: cell-based
[26] = Plasma stability in human assessed as half life at […] measured upto 120 mins by LC-MS analysis; type: ADME, cell-free
NB-4 [27] = test: Induction of apoptosis in human NB4 cells assessed as viable cells at 27 uM preincubated for 1 hrs followed by replacement with fresh culture medium and measured after 24 hrs by Annexin V-FITC/7AAD staining based flow cytometry assay (reference value: 94%); type: functional; settings: read-out: Activity
U-937 [28] = test: Induction of intrinsic apoptosis in human U-937 cells overexpressing p53-V272M mutant assessed as upregulation of PUMA gene expression by RT-qPCR analysis; type: functional, cell-based
U-937 [29] = test: Induction of cell cycle arrest in human U-937 cells overexpressing p53-V272M mutant assessed as upregulation of BTG2 gene expression by RT-qPCR analysis; type: functional, cell-based
NB-4 [30] = test: Induction of apoptosis in human NB4 cells assessed as necrotic cells at 9 uM preincubated for 1 hrs followed by replacement with fresh culture medium and measured after 24 hrs by Annexin V-FITC/7AAD staining based flow cytometry assay (reference value: 0.16%); type: functional

Question: With `CC(=O)OC[C@H]1O[C@@H](S[As]2SCCS2)[C@H](OC(C)=O)[C@@H](OC(C)=O)[C@@H]1OC(C)=O` as the compound, how does the Activity (HL-60 [1]) read?
Answer: The Activity was “Active”.

Question: What about the Activity (NB-4 [2]) of the same compound?
Answer: Its Activity is 0.27%.

Question: And the Activity [3]?
Answer: Its Activity is “Active”.

Question: And the Activity [4]?
Answer: The Activity was 0.18.

Question: And the Activity (NB-4 [5])?
Answer: Its Activity is 29%.

Question: What about the Drug uptake [6] of the same compound?
Answer: The Drug uptake was “Active”.

Question: What about the Activity (U-937 [7]) of the same compound?
Answer: Its Activity is “inactive”.

Question: And the inhibition (U-937 [8])?
Answer: Its inhibition is “Active”.

Question: And the Activity (U-937 [9])?
Answer: The Activity was “inactive”.

Question: And the Activity (U-937 [10])?
Answer: The Activity was “Active”.

Question: And the Activity [11]?
Answer: Its Activity is “inactive”.

Question: What about the Activity (HL-60 [12]) of the same compound?
Answer: Its Activity is “Active”.

Question: What about the Drug uptake [13] of the same compound?
Answer: Its Drug uptake is “Active”.

Question: And the Activity (NB-4 [14])?
Answer: The Activity was 15.6%.

Question: And the Activity [15]?
Answer: The Activity was “Dose-Dependent Effect”.

Question: What about the Activity (HepG2) of the same compound?
Answer: Its Activity is ~ 90%.

Question: What about the Activity (U-937 [16]) of the same compound?
Answer: The Activity was “Active”.

Question: And the Activity [17]?
Answer: The Activity was 0.02.

Question: What about the half-life [18] of the same compound?
Answer: The half-life was 11.3 min.

Question: And the Activity (U-937 [19])?
Answer: Its Activity is “Active”.

Question: What about the Activity (HL-60 [20]) of the same compound?
Answer: The Activity was “Active”.

Question: And the Activity (U-937 [21])?
Answer: Its Activity is “Active”.

Question: And the Activity (NB-4 [22])?
Answer: The Activity was 7.43%.

Question: And the pIC50 (U-937 [23])?
Answer: Its pIC50 is 6.64.

Question: And the Drug uptake [24]?
Answer: Its Drug uptake is “Active”.

Question: And the Activity [25]?
Answer: The Activity was “inactive”.

Question: What about the half-life [26] of the same compound?
Answer: The half-life was 16.1 min.

Question: What about the viability at 27 µM (NB-4 [27]) of the same compound?
Answer: The viability at 27 µM was 54.1%.

Question: And the Activity (U-937 [28])?
Answer: Its Activity is “Active”.

Question: And the Activity (U-937 [29])?
Answer: The Activity was “Active”.

Question: What about the Activity (NB-4 [30]) of the same compound?
Answer: The Activity was 0.26%.
